Converted amounts (≈) assume the structure as drawn.
Key:
[1] = biological target: T1, Prostaglandin G/H synthase 2 (Ovis aries, UniProt P79208); experiment: Inhibition of recombinant ovine COX2 using arachidonic acid as substrate preincubated for 15 mins followed by arachidonic acid addition measured after 2 mins by ELISA
T1 sequence (P79208 whole entry): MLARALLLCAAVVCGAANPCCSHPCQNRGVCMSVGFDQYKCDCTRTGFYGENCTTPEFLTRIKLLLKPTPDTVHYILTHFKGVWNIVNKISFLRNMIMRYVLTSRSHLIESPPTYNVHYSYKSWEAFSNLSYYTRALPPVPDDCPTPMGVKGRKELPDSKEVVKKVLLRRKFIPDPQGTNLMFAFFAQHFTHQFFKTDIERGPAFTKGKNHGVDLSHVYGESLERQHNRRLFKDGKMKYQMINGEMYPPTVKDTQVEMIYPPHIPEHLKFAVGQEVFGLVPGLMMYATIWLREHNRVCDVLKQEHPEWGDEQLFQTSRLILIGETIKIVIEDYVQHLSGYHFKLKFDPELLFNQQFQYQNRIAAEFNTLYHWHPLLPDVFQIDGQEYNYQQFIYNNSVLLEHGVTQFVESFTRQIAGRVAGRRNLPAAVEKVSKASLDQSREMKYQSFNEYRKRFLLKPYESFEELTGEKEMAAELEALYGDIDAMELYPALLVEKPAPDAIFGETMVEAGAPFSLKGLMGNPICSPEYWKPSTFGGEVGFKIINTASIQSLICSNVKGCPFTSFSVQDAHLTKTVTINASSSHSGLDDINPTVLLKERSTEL

RAW264.7 [2] = experiment: Antiinflammatory activity in mouse RAW264.7 cells assessed as inhibition of LPS-induced nitric oxide production; format: functional, cell-based
[3] = biological target: T2, Prostaglandin G/H synthase 2 (Homo sapiens) (UniProt P35354); experiment: Inhibition of human COX2 at 10 uM using arachidonic acid as substrate measured for 300 secs intervals from 3 to 10 secs in presence of hematin by fluorescence assay relative to control
T2 sequence (whole entry): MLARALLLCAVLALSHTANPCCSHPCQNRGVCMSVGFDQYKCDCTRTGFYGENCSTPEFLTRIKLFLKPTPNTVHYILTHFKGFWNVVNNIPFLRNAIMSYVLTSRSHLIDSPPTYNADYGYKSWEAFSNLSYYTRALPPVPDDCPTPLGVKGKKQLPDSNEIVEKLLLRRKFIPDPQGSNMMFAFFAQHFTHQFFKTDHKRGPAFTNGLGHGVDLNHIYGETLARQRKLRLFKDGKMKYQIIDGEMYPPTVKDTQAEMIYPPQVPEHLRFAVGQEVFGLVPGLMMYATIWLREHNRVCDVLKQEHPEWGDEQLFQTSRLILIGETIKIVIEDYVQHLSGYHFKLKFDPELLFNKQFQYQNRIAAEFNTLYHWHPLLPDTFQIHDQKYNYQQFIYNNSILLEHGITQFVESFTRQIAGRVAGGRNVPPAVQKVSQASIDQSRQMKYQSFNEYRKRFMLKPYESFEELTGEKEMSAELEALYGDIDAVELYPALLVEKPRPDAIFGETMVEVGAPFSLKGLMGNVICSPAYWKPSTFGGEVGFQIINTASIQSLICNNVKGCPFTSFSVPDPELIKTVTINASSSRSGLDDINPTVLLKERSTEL

RAW264.7 [4] = experiment: Antiinflammatory activity in mouse RAW264.7 cells assessed as inhibition of LPS-induced nitric oxide production after 24 hrs by Griess reagent based assay; format: functional, cell-based; details: RAW264.7, 24 h
[5] = biological target: T3, Prostaglandin G/H synthase 2 (Homo sapiens, UniProt P35354); experiment: Inhibition of COX2 (unknown origin)
T3 sequence (P35354 whole entry): T2 sequence (whole entry)

## CC(=O)OC[C@H]1O[C@@H](OCCc2ccc(O)c(O)c2)[C@H](O[C@@H]2OC[C@](O)(CO)[C@H]2O)[C@@H](O[C@@H]2O[C@@H](C)[C@H](O)[C@@H](O)[C@H]2O)[C@@H]1OC(=O)/C=C/c1ccc(O)c(O)c1
[1]
  IC50: 16 µM

## O=C1CC(c2ccc(O)cc2O)Oc2cc(O)cc(O)c21 (configuration not stated) [STEPPOGENIN]
RAW264.7 [2]
  IC50: 12.1 µg/mL

## CC(C)=CCc1c(-c2ccc(O)cc2O)oc2cc3c(c(O)c2c1=O)C=CC(C)(C)O3 [CUDRAFLAVONE B]
RAW264.7 [2]
  IC50: 7.4 µg/mL

## CC(C)=CCc1c(O)ccc(C(=O)/C=C/c2ccc(O)cc2)c1O [ISOBAVACHALCONE]
RAW264.7 [2]
  IC50: 3.5 µg/mL

## CC(C)[C@@H](C)/C=C/[C@@H](C)[C@H]1CC[C@@H]2[C@]1(C)CC[C@H]1[C@]23C=C[C@]2(C[C@@H](O)CC[C@]12C)OO3 [ERGOSTEROL PEROXIDE]
RAW264.7 [2]
  IC50: 28.7 µM

## CC(C)=CCc1c(-c2ccc(O)cc2O)oc2cc3c(c(O)c2c1=O)CC(C(C)(C)O)O3 (configuration not stated)
RAW264.7 [2]
  IC50: 2.2 µg/mL

## COc1cc(OC(C)=O)c2c(c1)O[C@H](OC(C)=O)[C@@]1(Cc3cc4c(cc31)COC4)C2=O
[3]
  inhibition: 20.9%

## COc1cc(O)cc(-c2cc3cc(O)c(OC)cc3o2)c1
RAW264.7 [4]
  IC50: 7.9 µg/mL (≈ 27.6 µM)

## COc1ccc(CC2COc3cc(O)cc(O)c3C2=O)cc1 (configuration not stated)
[3]
  inhibition: 20.9%

## O=C(O[C@@H]1[C@@H](c2c(O)cc(O)c3c2O[C@H](c2cc(O)c(O)c(O)c2)[C@H](OC(=O)c2cc(O)c(O)c(O)c2)C3)c2c(O)cc(O)c([C@H]3c4c(O)cc(O)cc4O[C@H](c4cc(O)c(O)c(O)c4)[C@@H]3OC(=O)c3cc(O)c(O)c(O)c3)c2O[C@@H]1c1cc(O)c(O)c(O)c1)c1cc(O)c(O)c(O)c1
[5]
  IC50: 4.5 µM

## C[C@@H]1O[C@@H](O[C@@H]2[C@@H](O)[C@H](OCCc3ccc(O)c(O)c3)O[C@H](CO)[C@H]2OC(=O)/C=C/c2ccc(O)c(O)c2)[C@H](O)[C@H](O[C@@H]2OC[C@](O)(CO)[C@H]2O)[C@H]1O
[1]
  IC50: 21.5 µM

## COc1cc(O)cc(-c2cc3ccc(O)cc3o2)c1C/C=C(\C)CCC=C(C)C
RAW264.7 [4]
  IC50: 5.3 µg/mL (≈ 13.5 µM)

## CC(C)=CCC1C(=O)c2c(O)cc3c(c2OC1c1ccc(O)cc1O)C=CC(C)(C)O3 (configuration not stated)
RAW264.7 [2]
  IC50: 5.3 µg/mL

## O=C(OC[C@@]1(O)CO[C@@H](O[C@H]2[C@H](Oc3ccc(O)c(O)c3)O[C@H](CO)[C@@H](O)[C@@H]2O)[C@@H]1O)c1ccc(O)c(O)c1
[1]
  IC50: 24.7 µM

## C[C@@H]1O[C@@H](O[C@@H]2[C@@H](O[C@@H]3OC[C@](O)(CO)[C@H]3O)[C@H](OCCc3ccc(O)c(O)c3)O[C@H](CO)[C@H]2OC(=O)/C=C/c2ccc(O)c(O)c2)[C@H](O)[C@H](O)[C@H]1O
[1]
  IC50: 18.2 µM

## COc1cc(OC(C)=O)c2c(c1)O[C@H](OC(C)=O)[C@]1(Cc3cc4c(cc31)COC4)C2=O
[3]
  inhibition: 89%

## COc1c(-c2ccc(O)c(O)c2)oc2cc(O)cc(O)c2c1=O [3-O-METHYLQUERCETIN]
RAW264.7 [4]
  IC50: 3.5 µg/mL (≈ 11.1 µM)

## CC(=O)OC[C@H]1O[C@@H](OCCc2ccc(O)c(O)c2)[C@H](O)[C@@H](O[C@@H]2O[C@@H](C)[C@H](O)[C@@H](O[C@@H]3OC[C@](O)(CO)[C@H]3O)[C@H]2O)[C@@H]1OC(=O)/C=C/c1ccc(O)c(O)c1
[1]
  IC50: 19.6 µM

## COOC[C@@]1(C)CC[C@]2(C)CC[C@]3(C)[C@@H]4CC(=O)c5cc(OC)c(O)cc5[C@]4(C)CC[C@@]3(C)C2C1 (some centres not stated)
[5]
  IC50: 660 µM

## COc1cc(O)cc2c1C(=O)C(Cc1ccc(O)cc1)CO2 (configuration not stated)
[3]
  inhibition: 73.8%

## CC(=O)OC[C@H]1O[C@@H](OCCc2ccc(O)c(O)c2)[C@H](O)[C@@H](O[C@@H]2O[C@@H](C)[C@H](O)[C@@H](O)[C@H]2O)[C@@H]1OC(=O)/C=C/c1ccc(O)c(O)c1
[1]
  IC50: 9.4 µM

## CC[C@H](CC[C@@H](C)[C@H]1CC[C@H]2[C@@H]3CC=C4C[C@@H](O[C@@H]5O[C@H](CO)[C@@H](O)[C@H](O)[C@H]5O)CC[C@]4(C)[C@H]3CC[C@]12C)C(C)C [SITOGLUSIDE]
RAW264.7 [2]
  IC50: 77.4 µM

## CC1=CCc2ccc3cc(-c4cc(O)cc(O)c4)oc3c2OC1
RAW264.7 [4]
  IC50: 19.8 µg/mL (≈ 64.2 µM)

## COc1cc(O)c2c(c1)OCC1(Cc3c1cc(OC)c(OC)c3O)C2=O (configuration not stated)
[3]
  inhibition: 101%

## C[C@@H]1O[C@@H](O[C@@H]2[C@@H](O)[C@H](OCCc3ccc(O)cc3)O[C@H](CO)[C@H]2OC(=O)/C=C/c2ccc(O)c(O)c2)[C@H](O)[C@H](O[C@@H]2OC[C@](O)(CO)[C@H]2O)[C@H]1O
[1]
  IC50: 36 µM

## CC[C@H](CC[C@@H](C)[C@H]1CC[C@H]2[C@@H]3CCC4=CC(=O)CC[C@]4(C)[C@H]3CC[C@]12C)C(C)C
RAW264.7 [2]
  IC50: 15.9 µM

## COc1cc(/C=C/C(=O)O[C@H]2CC[C@]3(C)[C@H]4CC=C5[C@@H]6CC(C)(C)CC[C@]6(C(=O)O)CC[C@@]5(C)[C@]4(C)CC[C@H]3C2(C)C)ccc1O
RAW264.7 [2]
  IC50: 54.1 µM

— ChEMBL document CHEMBL4406802, “Human disorders associated with inflammation and the evolving role of natural products to overcome” (Eur J Med Chem, 2019)
